Measured values: US20250129012A1, “ANTI-INFLAMMATORY AND ANALGESIC COMPOUNDS AND USE THEREOF” (JIANGSU ATOM BIOSCIENCE AND PHARMACEUTICAL CO., LTD., priority 2021, published 2025)
Like-named read-outs stand apart in the source and are kept apart here. Marks after values point to notes of the source that are not given here.

How the values were obtained:
[1] = test system: gouty arthritis in rats (urate crystals, left ankle joint); test: Pharmacodynamics experiment A on gouty arthritis in rats: paw volume; type: in vivo, SD rats; details: for Paw volume: Mean ± SEM
Protocol: Compounds 2, 17, 26 and 27 were prepared by grinding with 0.5% CMC-Na into a suspension of the corresponding concentration (0.06 mg/mL) for gavage before administration, and the volume of administration was 10 mL/kg. […] Before use, 0.5% CMC-Na was used for grinding and prepared into a suspension of the corresponding concentration (0.06 mg/mL) for gavage, and the volume of drug administered was 10 mL/kg.
Each group of subjects was prepared into a suspension of the corresponding concentration, and the administration volume was 10 mL/kg.
(§1) The crystalline arthritis model was prepared by intra-articular injection of urate crystals (40 mg/mL, in the left ankle joint of each rat). Different doses of the test drug were given separately by gavage administration. The day of administration was defined as day 1 of the experiment, and the drug was administered once a day for 10 consecutive days (pre-administration of the drug for 7 days prior to modeling, modeling on day 8, and continuation of the drug for 3 days). The experiment ended on day 10.
Paw volume was measured before administration, before urate injection, and 2, 4, 8, 10, 24, and 48 h after injection.
The data obtained from the experiment were statistically analyzed using IBM SPSS Statistics 22.0. All measurements were expressed as Mean±S.E.M s. The data were analyzed using SPSS 22.0 statistical software and variance chi-square test was performed on the parameters.

[2] = test system: TNF-α; test: Inflammatory factor experiment A: TNF-α in gouty arthritis rats; type: in vivo, SD rats
Protocol: (§2) Compounds 14, 17 and 26 were prepared by grinding with 0.5% CMC-Na before administration and into a suspension for gavage at the corresponding concentration (0.06 mg/mL), with a dosage volume of 10 mL/kg. Colchicine, purchased from Sun Chemical Technology (Shanghai) Co., Ltd. with batch no. 49ETRRAS, and was prepared by grinding with 0.5% CMC-Na before administration and into a suspension for gavage at the corresponding concentration (0.06 mg/mL), with a dosage volume of 10 mL/kg.
(§3) The compounds in each group were prepared into a suspension of the corresponding concentration, and the dosage volume was 10 mL/kg.
as §1, with “(40 mg/mL” for “(40 mg/mL,”, “test compounds” for “test drug”, “the compounds were” for “the drug was”, “10. […]” for “10.”

[3] = test system: IL-6; test: Inflammatory factor experiment A: IL-6 in gouty arthritis rats; type: in vivo, SD rats; details: synovial tissue of knee joints; dose 0.6 mg/kg gavage; day 10
Protocol: as §2, §3
as §1, with “(40 mg/mL” for “(40 mg/mL,”, “test compounds” for “test drug”, “the compounds were” for “the drug was”, “10. […]” for “10.”

[4] = test system: TNF-α; test: Inflammatory factor experiment B: TNF-α in knee synovial tissue (ELISA); type: in vivo, SD rats
[5] = test system: IL-6; test: Inflammatory factor experiment B: IL-6 in knee synovial tissue (ELISA); type: in vivo, SD rats
[6] = Acute toxicity test in mice by single administration; type: in vivo, ICR mice; details: both sexes, ICR, mouse, in vivo, po; acute toxicity, mice, single gavage; read-out: Maximum tolerated dose (MTD)
Protocol: (§4) Compounds 34, 48, 55 and 58 were ground with 0.5% CMC-Na before administration, and prepared into a suspension of the corresponding concentration for gavage, with an administration volume of 0.1 mL/10 g.
(§5) ICR mice, SPF grade, weighing 18-20 g, 6-8 weeks old, were provided by Nantong University. The Laboratory Animal Production License was SCXK (Su) 2016-0010 and Laboratory Animal Use License was SYXK (Su) 2017-0035.
(§6) After overnight fasting, the drug was administered once by gavage in a volume of 0.1 mL/10 g. The normal group was given the corresponding volume of 0.5% CMC-Na solution according to body weight. The state of the animal was observed after administration, the animals were weighed daily and the number of deaths was recorded for 14 consecutive days.

[7] = test system: ICR mice; test: as above; type: in vivo; details: single gavage dose 50 mg/kg; 14 days; deaths/animals
Protocol: as §4, §5, §6

[8] = In vivo pharmacokinetics in SD rats; details: for AUC(0-inf): read-out: AUCINF; for MRT inf: read-out: MRTINF
Procedure, shortened: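 SD rats received compound intravenously (0.5 mg/mL solution) or by oral gavage (1 mg/mL, fasted overnight), both formulated in DMSO/Solutol HS15/saline. Plasma compound concentrations were measured by LC/MS/MS. Non-compartmental parameters were then calculated.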

[9] = test system: novel coronavirus infection; details: cited from earlier work
[10] = death 35 h after ingestion; cited from earlier work
[11] = compounds 0.6 mg/kg, colchicine 0.6 and 1.2 mg/kg
[12] = Sprague-Dawley, rat, in vivo, po, Gavage - 10 mg/kg
[13] = Sprague-Dawley, rat, in vivo, Intravenous injection - 1 mg/kg
[14] = 4,159 patients with nasopharyngeal nucleic acid test

Q: Which “Paw volume versus model group, in words” value ([1]; 0.6 mg/kg gavage, time points after modeling) does the source give for `COc1cc2c(c(OC)c1OC)-c1ccc(OC)c(=O)cc1[C@@H](NC(C)=O)CC2` [colchicine, reference compound] here?
A: Its value is “significantly smaller than those in the model group at 2 h, 4 h, 8 h, 10 h, and 48 h after modeling”.

Q: What about the Paw volume ([1]; 2 h after modeling, 0.6 mg/kg gavage) of the same compound?
A: Its Paw volume is 2.44 ± 0.02*** cm^3.

Q: What about the Paw volume ([1]; 4 h after modeling, 0.6 mg/kg gavage) of the same compound?
A: Its Paw volume is 2.45 ± 0.03** cm^3.

Q: And the Paw volume ([1]; 8 h after modeling, 0.6 mg/kg gavage)?
A: Its Paw volume is 2.44 ± 0.04*** cm^3.

Q: What about the Paw volume ([1]; 10 h after modeling, 0.6 mg/kg gavage) of the same compound?
A: Its Paw volume is 2.46 ± 0.04** cm^3.

Q: And the Paw volume ([1]; 24 h after modeling, 0.6 mg/kg gavage)?
A: The Paw volume was 2.46 ± 0.05 cm^3.

Q: And the Paw volume ([1]; 48 h after modeling, 0.6 mg/kg gavage)?
A: The Paw volume was 2.24 ± 0.03*** cm^3.

Q: And the Paw volume ([1]; before modeling, 0.6 mg/kg gavage once a day)?
A: Its Paw volume is 2.18 ± 0.03 cm^3.

Q: What about the “TNF-α level after modeling, in words” value ([2]; 0.6 mg/kg) of the same compound?
A: The value was “can reduce the TNF-α level”.

Q: What about the “Decreased TNF-α percentage %” value ([2]; synovial tissue of knee joints, dose 0.6 mg/kg gavage, day 10) of the same compound?
A: The value was 93.73%.

Q: And the “Decreased IL-6 percentage %” value [3]?
A: The value was 107.14%.

Q: And the inhibition in vivo at 0.6 mg/kg ([4]; Rattus norvegicus, po, synovial tissue of knee joints, 48 h after modeling, dose 0.6 mg/kg, read-out: TNF-α percentage decrease %)?
A: The inhibition in vivo at 0.6 mg/kg was 58%.

Q: And the inhibition in vivo at 1.2 mg/kg ([4]; Rattus norvegicus, po, synovial tissue of knee joints, 48 h after modeling, dose 1.2 mg/kg (high dose group), read-out: TNF-α percentage decrease %)?
A: The inhibition in vivo at 1.2 mg/kg was 52.5%.

Q: And the “TNF-α level after modeling, in words” value [4, 11]?
A: The value was “could reduce the TNF-αlevel”.

Q: And the inhibition in vivo at 0.6 mg/kg ([5]; Rattus norvegicus, po, synovial tissue of knee joints, 48 h after modeling, dose 0.6 mg/kg, read-out: IL-6 percentage decrease %)?
A: Its inhibition in vivo at 0.6 mg/kg is 83.5%.

Q: And the inhibition in vivo at 1.2 mg/kg ([5]; Rattus norvegicus, po, synovial tissue of knee joints, 48 h after modeling, dose 1.2 mg/kg (high dose group), read-out: IL-6 percentage decrease %)?
A: Its inhibition in vivo at 1.2 mg/kg is 96.3%.

Q: And the “IL-6 level after modeling, in words” value [5, 11]?
A: The value was “could reduce the IL-6 level”.

Q: And the MTD at 14 days [6]?
A: Its MTD at 14 days is less than 50 mg/kg.

Q: What about the Mortality rate [7] of the same compound?
A: Its Mortality rate is 3/6.

Q: What about the F ([8]; Gavage - 10 mg/kg, calculated by AUCINF) of the same compound?
A: The F was 8.73%.

Q: What about the AUC(0-inf) [8, 12] of the same compound?
A: The AUC(0-inf) was 735 ng·h/mL.

Q: And the Cmax ([8]; Sprague-Dawley, rat, in vivo, po, Gavage - 10 mg/kg, read-out: Cmax)?
A: The Cmax was 175 ng/mL.

Q: And the MRT inf [8, 12]?
A: Its MRT inf is 25.7 h.

Q: What about the Tmax ([8]; Sprague-Dawley, rat, in vivo, po, Gavage - 10 mg/kg, read-out: Tmax) of the same compound?
A: Its Tmax is 0.417 h.

Q: What about the AUC(0-inf) [8, 13] of the same compound?
A: Its AUC(0-inf) is 567 ng·h/mL.

Q: And the clearance ([8]; Sprague-Dawley, rat, in vivo, Intravenous injection - 1 mg/kg, read-out: CL (converted))?
A: Its clearance is 31.8 mL/min/kg.

Q: What about the MRT inf [8, 13] of the same compound?
A: The MRT inf was 11 h.

Q: What about the Vd ([8]; Sprague-Dawley, rat, in vivo, Intravenous injection - 1 mg/kg, read-out: VSS) of the same compound?
A: Its Vd is 17.6 L/kg.

Q: And the “Reduction of hospital admissions” value [9, 14]?
A: The value was 25%.

Q: What about the “Reduction of need for respiratory equipment” value [9, 14] of the same compound?
A: The value was 50%.

Q: And the “Reduction of number of deaths” value [9, 14]?
A: Its value is 44%.

Q: What about the “Lower risk of hospitalization or death compared with placebo” value ([9]; 4,488 non-hospitalized patients) of the same compound?
A: Its value is 21%.

Q: What about the “Dose with reported death cases” value [10] of the same compound?
A: Its value is 0.4 mg/kg.
